{
  "source": "patent US7087430B2",
  "about": "“Human VNO cDNA libraries” (Pherin Pharmaceuticals, Inc., priority 2000, dated 2006)",
  "key": {"[1]": {"system": "human VNO", "settings": "cited from earlier work"}, "[2]": {"system": "female human VNO cell", "assay": "Electrophysiological membrane currents in cultured human VNO cells", "format": "cell-based", "description": "FIG. 1 is an electrophysiological trace showing the effects of pertussis toxin on membrane currents induced by a vomeropherin.\nFIG. 1C indicates when the cells were exposed to ADO (i.e., ADO pulses).\nPTX uncouples receptors from their heterotrimeric G proteins and thereby blocks signal transduction. Sensitivity to PTX is an accepted marker for pathways involving G protein-coupled receptors that decrease intracellular CAMP, regulate ion channels or activate phospholipases (i.e., couple to Gi or G0). (For a review, see Simon et al., (1991) Science 252:802–808.) We have also implicated a specific type of ion channel in the response of human VNO cells to vomeropherins. […] However, as noted above, cultured VNO cells are of limited value as a screening tool due to the need to continually isolate new cells. Thus, construction of a cDNA library was desired in order to clone and express pheromone receptors in a cell line.\nAs noted above, […] data (FIG. 1) indicate that cells isolated from the VNO of human volunteers respond electrophysiologically to a vomeropherin via a PTX-sensitive pathway, a hallmark of G protein-coupled receptor signaling. Thus, we anticipated that components of the pathway such as G proteins (e.g., Gi and G0), adenylyl cyclase (e.g., type 3 and 7), and various ion channels are expressed in these cells. We assayed for expression of these proteins in the VNO by screening our library for cDNA clones of the corresponding mRNAs. Knowledge of the signaling components expressed in VNO neurons is essential to express the receptors functionally in tissue culture cells for high throughput drug screening assays."}, "[3]": {"system": "human brain", "settings": "human volunteers, delivered non-specifically to the nasal cavity, no detectable odor (Sobel et al. 1999); cited from earlier work"}},
  "data": [
    {"compound": "C[C@@]12C=CC[C@H]1[C@@H]1CCc3cc(O)ccc3[C@H]1CC2", "note": "[estra-1,3,5(10),16-tetraen-3-ol]", "values": [
      {"measurement": "physiological responses on administration to the human VNO", "setting": "[1]", "value": "induce bradycardia, bradypnea, increases in core body temperature, and other physiological responses"}
    ]},
    {"compound": "C[C@@]12C=CC[C@H]1[C@@H]1CCC3=CC(=O)CC[C@]3(C)[C@H]1CC2", "note": "[androstadienone, androsta-4,16-dien-3-one]", "values": [
      {"measurement": "physiological responses on administration to the human VNO", "setting": "[1]", "value": "induce bradycardia, bradypnea, increases in core body temperature, and other physiological responses"},
      {"measurement": "inward membrane currents induced by vomeropherin", "setting": "[2]; 10^−7M, human VNO cell, FIG. 1A", "value": "inward currents induced"}
    ]},
    {"compound": "pertussis toxin", "values": [
      {"measurement": "effect on ADO-induced inward currents", "setting": "[2]; cell incubated with 100 ng/ml PTX, FIG. 1B", "value": "blocking the inward currents"},
      {"measurement": "effect on electrophysiological response to a vomeropherin", "setting": "[2]; cultured human VNO neuroepithelial cells, FIG. 1", "value": "blocks the electrophysiological response to a vomeropherin"}
    ]},
    {"compound": "CC(=O)Oc1ccc2c(c1)CC[C@@H]1[C@@H]2CC[C@]2(C)C=CC[C@@H]12", "note": "[estra-1,3,5(10),16-tetraen-3yl acetate]", "values": [
      {"measurement": "physiological responses in vivo by site of application", "setting": "[1]; human subjects, VNO versus olfactory or respiratory epithelium (Monti-Bloch et al. 1994)", "value": "induces physiological responses in vivo only when applied specifically to the VNO"},
      {"measurement": "brain activation by fMRI", "setting": "[3]", "value": "dose-dependent activation of the anterior medial thalamus, the inferior frontal gyrus, and other regions of the human brain"}
    ]}
  ]
}
